This experiment can be described thus: Inhibition of ribonuclease A.

SMILES strings stand for the structures.

A word on the Ki: it is the dissociation constant of the complex between target and ligand, obtained from inhibition or displacement. Higher therefore signals a looser hold on the target.

`Nc1ncnc2c1ncn2[C@@H]1O[C@H](COP(=O)(O)OP(=O)(O)O[C@H]2C[C@H](n3ccc(=O)[nH]c3=O)O[C@@H]2COP(=O)(O)O)[C@@H](OP(=O)(O)O)[C@H]1O` came in with an inhibition constant Ki of 0.027 µM.
Then `Nc1ncnc2c1ncn2[C@@H]1O[C@H](COP(=O)(O)OP(=O)(O)OC2CC(n3ccc(=O)[nH]c3=O)OC2CO)[C@@H](O)[C@H]1O` (some centres not stated), with 11.3 µM.

The values are drawn from ChEMBL document CHEMBL1141314, “SAR index: quantifying the nature of structure-activity relationships” (J Med Chem, 2007).
